In patent publication US20080009418A1, “Selective Inhibitors” (Alchemia LTD., priority 2004, published 2008):

Columns and labels:
[1] = target: T1, Human δ-opioid (DOP) (Homo sapiens, UniProt P41143); assay: Radioligand binding, human δ-opioid (DOP) membranes, FlashPlate, [3H]-Bremazocine; details: compound at 10 μM, [3H]-Bremazocine
T1 construct: purchased Perkin Elmer Biosignal
Outline: (§1)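 Cloned human receptor membranes were coated onto FlashPlate wells and incubated with radioligand and compound (added from a 0.5 mM DMSO daughter plate) for 1 hour at room temperature in the dark. Scintillation counting gave percent inhibition, with DMSO defining total and reference ligand defining non-specific binding.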

[2] = target: T2, Human κ-Opioid (KOP) (Homo sapiens, UniProt P41145); assay: Radioligand binding, human κ-opioid (KOP) membranes, filtration, [3H]-Diprenorphine; details: compound at 10 μM, [3H]-Diprenorphine
T2 construct: purchased Perkin Elmer Biosignal
Outline: (§2)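 Percent inhibition of radioligand binding measured on recombinant human membranes: NK1 with [125I]-Substance P, KOP with [3H]-Diprenorphine. Incubation 1 h at room temperature, then harvest onto 0.3% PEI-soaked filters, cold Tris-HCl pH 7.4 washes and scintillation counting; non-specific binding from reference ligand wells.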

[3] = target: T3, Human Melanocortin (MC3) (Homo sapiens, UniProt P41968); assay: Radioligand binding, human melanocortin MC3 membranes, FlashPlate, [125I]-NDP-αMSH; details: compound at 10 μM, [125I]-NDP-αMSH
T3 construct: purchased Perkin Elmer Biosignal
Outline: as §1

[4] = target: T4, Human Melanocortin (MC4) (Homo sapiens, UniProt P32245); assay: Radioligand binding, human melanocortin MC4 membranes, FlashPlate, [125I]-NDP-αMSH; details: compound at 10 μM, [125I]-NDP-αMSH
T4 construct: purchased Perkin Elmer Biosignal
Outline: as §1

[5] = target: T5, Human melanocortin (MC5) (Homo sapiens, UniProt P33032); assay: Radioligand binding, human melanocortin MC5 membranes, FlashPlate, [125I]-NDP-αMSH; details: compound at 10 μM, [125I]-NDP-αMSH
T5 construct: purchased Perkin Elmer Biosignal
Outline: as §1

[6] = target: T6, Human melanin-concentrating hormone (MCH1) (Homo sapiens, UniProt Q99705); assay: Radioligand binding, human melanin-concentrating hormone MCH1 membranes, FlashPlate, [125I]-S36057; details: compound at 10 μM; for A6: inhibition of radioligand binding, human melanin-concentrating hormone (MCH1): [125I]-S36057
T6 construct: purchased Perkin Elmer Biosignal
Outline: as §1

[7] = target: T7, Human μ-opioid (MOP) (Homo sapiens, UniProt P35372); assay: Radioligand binding, human μ-opioid (MOP) membranes, FlashPlate, [3H]-Naloxone; details: compound at 10 μM, [3H]-Naloxone
T7 construct: purchased Perkin Elmer Biosignal
Outline: as §1

[8] = target: T8, Human neurokinin (NK1) (Homo sapiens, UniProt P25103); assay: Radioligand binding, human neurokinin NK1 membranes, filtration, [125I]-Substance P; details: compound at 10 μM, [125I]-Substance P
T8 construct: purchased Perkin Elmer Biosignal
Outline: as §2

[9] = target: T9, Human neuropeptide Y (NPY-Y1) (Homo sapiens, UniProt P25929); assay: Radioligand binding, human neuropeptide Y NPY-Y1 membranes, FlashPlate, [125I]-PYY; details: compound at 10 μM, [125I]-PYY
T9 construct: purchased Perkin Elmer Biosignal
T9 sequence (P25929 1-384): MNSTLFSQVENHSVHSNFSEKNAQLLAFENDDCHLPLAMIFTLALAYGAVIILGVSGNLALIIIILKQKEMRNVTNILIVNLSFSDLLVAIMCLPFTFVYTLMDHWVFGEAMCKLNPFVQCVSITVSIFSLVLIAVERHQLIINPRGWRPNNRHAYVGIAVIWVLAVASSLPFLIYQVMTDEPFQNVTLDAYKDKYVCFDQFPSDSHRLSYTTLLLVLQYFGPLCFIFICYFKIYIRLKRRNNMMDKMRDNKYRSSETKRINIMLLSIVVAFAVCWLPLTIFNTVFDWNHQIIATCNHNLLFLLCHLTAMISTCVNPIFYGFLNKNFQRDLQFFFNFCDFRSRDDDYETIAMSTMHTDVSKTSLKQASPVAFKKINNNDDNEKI
Outline: as §1

[10] = target: T10, Human opioid (ORL1) (Homo sapiens, UniProt P41146); assay: Radioligand binding, human opioid ORL1 membranes, FlashPlate, [125I]-Nociceptin; details: compound at 10 μM, [125I]-Nociceptin
T10 construct: purchased Perkin Elmer Biosignal
Outline: as §1

[11] = target: T11, Mouse urotensin (mUR2) (Mus musculus, UniProt Q8VIH9); assay: Radioligand binding, mouse urotensin mUR2 membranes, FlashPlate, [125I]-Urotensin II; details: compound at 10 μM, [125I]-Urotensin II
T11 construct: purchased Perkin Elmer Biosignal
T11 sequence (Q8VIH9 1-385): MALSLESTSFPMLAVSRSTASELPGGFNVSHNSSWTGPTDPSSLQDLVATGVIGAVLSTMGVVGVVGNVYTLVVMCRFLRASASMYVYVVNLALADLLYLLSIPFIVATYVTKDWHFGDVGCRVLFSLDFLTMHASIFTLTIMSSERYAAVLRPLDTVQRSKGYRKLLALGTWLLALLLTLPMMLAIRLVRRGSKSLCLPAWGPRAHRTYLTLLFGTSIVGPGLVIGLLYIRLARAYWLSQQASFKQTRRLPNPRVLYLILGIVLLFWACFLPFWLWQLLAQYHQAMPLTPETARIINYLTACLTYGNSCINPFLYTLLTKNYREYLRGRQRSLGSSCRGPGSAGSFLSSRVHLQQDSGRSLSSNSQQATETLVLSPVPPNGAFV
Outline: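 Cloned mouse urotensin (mUR2) receptor membranes from Perkin Elmer Biosignal were immobilized in FlashPlate microplates using a proprietary coating. Each well got 19.5 μl buffer, then 0.5 μl of DMSO, reference ligand, or compound. Adding 5 μl of [125I]-Urotensin II, diluted to 5× final concentration in binding buffer, started binding. Plates were sealed with TopSeal-A and incubated 1 hour at room temperature in the dark. Wells were counted for 30 seconds each on a TopCount after a 60-second delay, and percentage inhibition was calculated.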

T4 sequence (P32245 whole entry): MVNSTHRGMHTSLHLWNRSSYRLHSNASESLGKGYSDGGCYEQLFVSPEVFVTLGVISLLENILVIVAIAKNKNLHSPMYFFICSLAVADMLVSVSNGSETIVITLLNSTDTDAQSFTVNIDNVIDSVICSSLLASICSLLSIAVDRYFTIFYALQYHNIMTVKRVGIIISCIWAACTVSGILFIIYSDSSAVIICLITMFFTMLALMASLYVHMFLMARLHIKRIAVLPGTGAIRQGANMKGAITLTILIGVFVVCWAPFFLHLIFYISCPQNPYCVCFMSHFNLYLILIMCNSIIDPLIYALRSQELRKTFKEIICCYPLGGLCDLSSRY
T7 sequence (P35372 whole entry): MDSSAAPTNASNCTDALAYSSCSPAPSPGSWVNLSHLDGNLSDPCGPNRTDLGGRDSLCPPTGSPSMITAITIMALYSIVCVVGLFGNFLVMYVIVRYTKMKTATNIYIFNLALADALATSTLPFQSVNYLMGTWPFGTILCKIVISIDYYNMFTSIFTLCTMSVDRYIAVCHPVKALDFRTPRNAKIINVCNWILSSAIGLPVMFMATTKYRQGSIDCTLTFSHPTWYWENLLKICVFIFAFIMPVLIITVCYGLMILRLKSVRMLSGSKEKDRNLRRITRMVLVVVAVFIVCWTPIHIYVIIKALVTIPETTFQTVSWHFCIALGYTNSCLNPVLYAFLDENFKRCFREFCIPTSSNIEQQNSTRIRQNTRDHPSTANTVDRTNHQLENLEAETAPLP
T3 sequence (P41968 whole entry): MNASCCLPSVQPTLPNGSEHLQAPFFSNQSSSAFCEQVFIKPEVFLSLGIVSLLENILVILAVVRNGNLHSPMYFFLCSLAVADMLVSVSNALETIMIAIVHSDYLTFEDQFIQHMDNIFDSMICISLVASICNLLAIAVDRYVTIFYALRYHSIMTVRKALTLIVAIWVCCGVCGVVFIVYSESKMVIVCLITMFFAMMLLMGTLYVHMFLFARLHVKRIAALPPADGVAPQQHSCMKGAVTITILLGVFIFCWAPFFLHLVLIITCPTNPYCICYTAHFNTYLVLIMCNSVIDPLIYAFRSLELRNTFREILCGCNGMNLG
T6 sequence (Q99705 whole entry): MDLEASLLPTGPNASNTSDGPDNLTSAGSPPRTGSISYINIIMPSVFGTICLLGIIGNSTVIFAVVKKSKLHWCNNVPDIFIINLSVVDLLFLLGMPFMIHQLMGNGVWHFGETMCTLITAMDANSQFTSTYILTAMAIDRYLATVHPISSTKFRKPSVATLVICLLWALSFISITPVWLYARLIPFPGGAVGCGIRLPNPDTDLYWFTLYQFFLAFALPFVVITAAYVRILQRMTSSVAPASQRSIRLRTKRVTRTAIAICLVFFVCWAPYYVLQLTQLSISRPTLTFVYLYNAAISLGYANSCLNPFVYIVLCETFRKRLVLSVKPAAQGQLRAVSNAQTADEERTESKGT
T5 sequence (P33032 whole entry): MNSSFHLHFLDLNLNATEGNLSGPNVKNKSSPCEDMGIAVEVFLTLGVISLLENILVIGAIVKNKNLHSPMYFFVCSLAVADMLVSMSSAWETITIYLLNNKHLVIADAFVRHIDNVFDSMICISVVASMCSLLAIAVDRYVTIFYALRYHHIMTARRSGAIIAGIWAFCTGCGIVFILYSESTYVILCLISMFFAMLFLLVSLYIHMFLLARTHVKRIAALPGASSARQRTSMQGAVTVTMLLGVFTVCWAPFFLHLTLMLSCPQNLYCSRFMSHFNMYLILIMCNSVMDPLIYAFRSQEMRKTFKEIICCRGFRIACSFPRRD
T8 sequence (P25103 whole entry): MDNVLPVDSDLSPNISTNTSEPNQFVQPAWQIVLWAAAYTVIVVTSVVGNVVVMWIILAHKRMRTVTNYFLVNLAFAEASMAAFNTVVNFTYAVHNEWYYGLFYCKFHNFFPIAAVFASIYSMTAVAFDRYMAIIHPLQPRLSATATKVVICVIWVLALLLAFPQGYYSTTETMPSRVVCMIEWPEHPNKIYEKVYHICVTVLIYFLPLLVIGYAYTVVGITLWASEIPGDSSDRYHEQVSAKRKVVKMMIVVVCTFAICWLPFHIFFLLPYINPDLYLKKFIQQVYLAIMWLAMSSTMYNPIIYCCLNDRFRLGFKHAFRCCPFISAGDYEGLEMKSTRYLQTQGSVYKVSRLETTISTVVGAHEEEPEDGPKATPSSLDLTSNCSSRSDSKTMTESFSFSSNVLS
T10 sequence (P41146 whole entry): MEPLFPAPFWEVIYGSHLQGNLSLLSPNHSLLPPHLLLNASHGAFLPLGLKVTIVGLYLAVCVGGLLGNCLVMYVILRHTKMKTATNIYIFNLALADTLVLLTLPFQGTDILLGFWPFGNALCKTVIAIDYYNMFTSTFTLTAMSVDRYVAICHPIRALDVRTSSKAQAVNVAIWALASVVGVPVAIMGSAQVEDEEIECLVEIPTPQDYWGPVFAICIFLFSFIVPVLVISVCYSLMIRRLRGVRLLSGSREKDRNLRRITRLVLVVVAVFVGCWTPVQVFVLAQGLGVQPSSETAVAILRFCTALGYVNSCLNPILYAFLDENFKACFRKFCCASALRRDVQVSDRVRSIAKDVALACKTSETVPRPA
T1 sequence (P41143 whole entry): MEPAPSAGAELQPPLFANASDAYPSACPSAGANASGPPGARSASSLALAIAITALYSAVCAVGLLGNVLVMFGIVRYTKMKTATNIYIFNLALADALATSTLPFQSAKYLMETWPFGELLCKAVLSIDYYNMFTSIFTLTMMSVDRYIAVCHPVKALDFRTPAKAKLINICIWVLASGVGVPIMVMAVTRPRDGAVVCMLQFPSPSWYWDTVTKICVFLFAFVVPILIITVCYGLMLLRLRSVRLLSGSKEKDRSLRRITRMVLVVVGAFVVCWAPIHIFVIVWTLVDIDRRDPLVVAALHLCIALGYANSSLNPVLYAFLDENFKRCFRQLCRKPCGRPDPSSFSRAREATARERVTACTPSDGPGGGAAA
T2 sequence (P41145 whole entry): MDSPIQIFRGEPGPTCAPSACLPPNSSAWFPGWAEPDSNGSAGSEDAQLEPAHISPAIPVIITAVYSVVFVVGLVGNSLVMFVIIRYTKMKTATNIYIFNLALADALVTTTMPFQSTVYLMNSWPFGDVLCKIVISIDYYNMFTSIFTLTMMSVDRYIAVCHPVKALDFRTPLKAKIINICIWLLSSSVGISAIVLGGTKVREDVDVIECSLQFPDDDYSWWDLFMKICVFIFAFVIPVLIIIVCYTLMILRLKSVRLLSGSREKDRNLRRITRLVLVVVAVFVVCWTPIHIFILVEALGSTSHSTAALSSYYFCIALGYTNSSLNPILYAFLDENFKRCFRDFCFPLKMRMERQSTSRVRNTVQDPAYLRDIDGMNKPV

SMILES	A4: inhibition of radioligand binding, human melanocortin (MC4) [4]	A5: inhibition of radioligand binding, human melanocortin (MC5) [5]	A6: inhibition of radioligand binding, human melanin-concentrating hormone (MCH1) [6]	A8: inhibition of radioligand binding, human neurokinin (NK1) [8]	A9: inhibition of radioligand binding, human neuropeptide Y (NPY-Y1) [9]	A10: inhibition of radioligand binding, human opioid (ORL1) [10]	A11: inhibition of radioligand binding, mouse urotensin (mUR2) [11]	A1: inhibition of radioligand binding ([1]; human DOP membranes)	A2: inhibition of radioligand binding ([2]; human KOP membranes)	A5: inhibition of radioligand binding ([5]; human MC5 membranes)	A7: inhibition of radioligand binding ([7]; human MOP membranes)	A8: inhibition of radioligand binding ([8]; human NK1 membranes)	A9: inhibition of radioligand binding ([9]; human NPY-Y1 membranes)	A11: inhibition of radioligand binding ([11]; mouse mUR2 membranes)	other results
COC[C@H]1OC(OCc2ccc(-c3ccccc3)cc2)[C@H](NC(=O)CCCNC(=N)N)[C@@H](OCc2ccc(-c3ccccc3)cc2)[C@@H]1O (single isomer, unassigned) [compound 335]	+ (“+” indicates greater than 50% inhibition at 10 μM)	+ (“+” indicates greater than 50% inhibition at 10 μM)	+ (“+” indicates greater than 50% inhibition at 10 μM)	+ (“+” indicates greater than 50% inhibition at 10 μM)	− (“−” indicates less than 50% inhibition at 10 μM)	− (“−” indicates less than 50% inhibition at 10 μM)	− (“−” indicates less than 50% inhibition at 10 μM)	–	–	–	–	–	–	–	A1: inhibition of radioligand binding, human δ-opioid (DOP) ([1]; 10 µM): + (“+” indicates greater than 50% inhibition at 10 μM); A2: inhibition of radioligand binding, human κ-opioid (KOP) ([2]; 10 µM): + (“+” indicates greater than 50% inhibition at 10 μM); A3: inhibition of radioligand binding, human melanocortin (MC3) ([3]; 10 µM): + (“+” indicates greater than 50% inhibition at 10 μM); A7: inhibition of radioligand binding, human μ-opioid (MOP) ([7]; 10 µM): + (“+” indicates greater than 50% inhibition at 10 μM)
CSC1OC(COCc2ccc3ccccc3c2)C(O)C(OCc2ccc3ccccc3c2)C1NC(=O)CCNC(=N)N (stereo not shown) [compound 319]	+ (“+” indicates greater than 50% inhibition at 10 μM)	+ (“+” indicates greater than 50% inhibition at 10 μM)	− (“−” indicates less than 50% inhibition at 10 μM)	+ (“+” indicates greater than 50% inhibition at 10 μM)	− (“−” indicates less than 50% inhibition at 10 μM)	− (“−” indicates less than 50% inhibition at 10 μM)	− (“−” indicates less than 50% inhibition at 10 μM)	–	–	–	–	–	–	–	A1: inhibition of radioligand binding, human δ-opioid (DOP) [1]: − (“−” indicates less than 50% inhibition at 10 μM); A2: inhibition of radioligand binding, human κ-opioid (KOP) [2]: − (“−” indicates less than 50% inhibition at 10 μM); A3: inhibition of radioligand binding, human melanocortin (MC3) [3]: − (“−” indicates less than 50% inhibition at 10 μM); A7: inhibition of radioligand binding, human μ-opioid (MOP) [7]: − (“−” indicates less than 50% inhibition at 10 μM)
NCCCC(=O)NC1C(OCc2ccc3ccccc3c2)OC(COCc2ccc3ccccc3c2)C(O)C1OCc1ccccc1 (single isomer, unassigned) [compound 466]	–	–	–	–	–	–	–	− (“−” indicates less than 50% inhibition at 10 μM)	− (“−” indicates less than 50% inhibition at 10 μM)	+ (“+” indicates greater than 50% inhibition at 10 μM)	− (“−” indicates less than 50% inhibition at 10 μM)	+ (“+” indicates greater than 50% inhibition at 10 μM)	− (“−” indicates less than 50% inhibition at 10 μM)	− (“−” indicates less than 50% inhibition at 10 μM)	A3: inhibition of radioligand binding ([3]; human MC3 membranes, 10 µM): − (“−” indicates less than 50% inhibition at 10 μM); A4: inhibition of radioligand binding ([4]; human MC4 membranes, 10 µM): + (“+” indicates greater than 50% inhibition at 10 μM); A6: inhibition of radioligand binding ([6]; [125I]-S36057, human MCH1 membranes, 10 µM): + (“+” indicates greater than 50% inhibition at 10 μM); A10: inhibition of radioligand binding ([10]; human ORL1 membranes, 10 µM): + (“+” indicates greater than 50% inhibition at 10 μM)
CSC1O[C@H](COCc2ccc(-c3ccccc3)cc2)[C@@H](O)[C@@H](OCc2ccc(Cl)cc2)[C@H]1NC(=O)CCCNC(=N)N (stereo partly shown) [compound 279]	–	–	–	–	–	–	–	–	–	–	–	–	–	–	A1: inhibition of radioligand binding ([1]; FlashPlate): − (“−” indicates less than 50% inhibition at 10 μM); A2: inhibition of radioligand binding ([2]; filtration): − (“−” indicates less than 50% inhibition at 10 μM); A3: inhibition of radioligand binding ([3]; FlashPlate): − (“−” indicates less than 50% inhibition at 10 μM); A4: inhibition of radioligand binding ([4]; FlashPlate): − (“−” indicates less than 50% inhibition at 10 μM); A5: inhibition of radioligand binding ([5]; FlashPlate): + (“+” indicates greater than 50% inhibition at 10 μM); A6: inhibition of radioligand binding ([6]; [125I]-S36057, FlashPlate): − (“−” indicates less than 50% inhibition at 10 μM); A7: inhibition of radioligand binding ([7]; FlashPlate): − (“−” indicates less than 50% inhibition at 10 μM); A8: inhibition of radioligand binding ([8]; filtration): + (“+” indicates greater than 50% inhibition at 10 μM); A9: inhibition of radioligand binding ([9]; FlashPlate): − (“−” indicates less than 50% inhibition at 10 μM); A10: inhibition of radioligand binding ([10]; FlashPlate): − (“−” indicates less than 50% inhibition at 10 μM); A11: inhibition of radioligand binding ([11]; FlashPlate): − (“−” indicates less than 50% inhibition at 10 μM)
N=C(N)NCCC(=O)NC1C(OCc2ccc(Cl)cc2)OC(COCc2ccc(Cl)cc2)C(O)C1OCc1ccc(-c2ccccc2)cc1 (stereo not shown) [compound 434]	–	–	–	–	–	–	–	− (“−” indicates less than 50% inhibition at 10 μM)	− (“−” indicates less than 50% inhibition at 10 μM)	+ (“+” indicates greater than 50% inhibition at 10 μM)	− (“−” indicates less than 50% inhibition at 10 μM)	+ (“+” indicates greater than 50% inhibition at 10 μM)	− (“−” indicates less than 50% inhibition at 10 μM)	− (“−” indicates less than 50% inhibition at 10 μM)	A3: inhibition of radioligand binding ([3]; human MC3 membranes): + (“+” indicates greater than 50% inhibition at 10 μM); A4: inhibition of radioligand binding ([4]; human MC4 membranes): + (“+” indicates greater than 50% inhibition at 10 μM); A6: inhibition of radioligand binding ([6]; [125I]-S36057, human MCH1 membranes): + (“+” indicates greater than 50% inhibition at 10 μM); A10: inhibition of radioligand binding ([10]; human ORL1 membranes): − (“−” indicates less than 50% inhibition at 10 μM)
